From US9085540B2, “Pyrazinecarboxamide compound” (Astellas Pharma Inc., priority 2012, dated 2015)

What was measured:
[1] = molecular target: EGFR [T790M/L858R] (Homo sapiens (Human), UniProt P00533, L858R/T790M); assay: Inhibitory activity on EGFR T790M/L858R mutation kinase (LabChip peptide substrate phosphorylation); assay type: biochemical; details: EGFR [T790M/L858R] enzyme, 2 hours preincubation, ATP 1000 μM
Protocol: The phosphorylation activity on the peptide substrate of EGFR was investigated using LabChip (trademark) Systems (Caliper Life Sciences, Inc.). […] (Carna Biosciences, Inc.) was used. […] Then, the substrate and the ATP solution were added thereto, followed by reaction for 1 hour. An ATP concentration of 1000 μM was used. A reaction liquid containing the enzyme protein but no test compound (in which the DMSO alone was added as a solvent at 0.4% in place of the test compound) was prepared, followed by reaction in the same manner with or without ATP addition. […] The concentration causing 50% inhibition (IC50) was calculated for the test compound by a logistic regression method.

[2] = system: Ba/F3 cells expressing EGFR T790M/L858R mutation kinase; assay: Inhibition of EGFR T790M/L858R mutation kinase-dependent cell proliferation (Cell Titer-Glo); assay type: cell-based; details: Mus musculus, BaF3, 48 h, cultured 2 days
Protocol: (§1) In a 96-well plate (Iwaki), Ba/F3 cells were seeded at 500 cells per well in an RPMI1640 medium (Invitrogen) containing 10% fetal bovine serum, followed by the addition of the test compound (final concentrations ranging from 1 μM to 0.1 nM) and DMSO which was a solvent of the test compound as a negative control. In the presence of 5% CO2, the cells were cultured at 37° C. for 2 days. A cell counting reagent (Cell Titer-Glo; Promega) was added thereto, and the light emitting intensity was measured using a luminometer (Envison or ARVO; PerkinElmer Inc.). […] The inhibitory rate of the test compound was calculated and the concentration causing 50% inhibition (IC50 value) was determined by a logistic regression method.

[3] = system: H1975 cells (EGFR T790M mutation-expressing) subcutaneous tumor; assay: Anti-tumor test on EGFR T790M mutation-expressing H1975 cell cancer-bearing mice; assay type: in vivo; details: Mus musculus, NCI-H1975, 336 h; H1975 cancer-bearing nude mice, oral 10 mg/kg once a day for 14 days; read-out: inhibitory rate (tumor volume)
Protocol: 3×10^6 Cells of H1975 suspended in PBS were inoculated subcutaneously by injection to the back of 5-week old male […] nude mice (Charles River Laboratories Japan, Inc.). After 10 days of the inoculation, the administration of the test compound was initiated. The test was carried out in the solvent group and the test compound groups, with 5 animals per group. The test compounds were each mixed in a solvent of 0.5% aqueous methyl cellulose solution or a mixed solvent of polyethyleneglycol:N-methylpyrrolidone=90:10, and administered orally at a dose of 10 mg/kg. Administrations were performed once a day for 14 days, and the body weight and the tumor diameter were measured roughly every other day. The tumor volume was calculated using the following formula. [Tumor volume (mm^3)]=[Tumor major axis (mm)]×[Tumor minor axis (mm)]^2×0.5

[4] = system: Ba/F3 cells expressing EGFR T790M/del19 mutation kinase; assay: Inhibition of EGFR T790M/del19 mutation kinase-dependent cell proliferation (Cell Titer-Glo); assay type: cell-based; details: Mus musculus, BaF3, 48 h; Ba/F3 cells expressing EGFR T790M/del19, cultured 2 days
Protocol: as §1

Sequence of EGFR [T790M/L858R] (P00533 25-1210 T790M/L858R): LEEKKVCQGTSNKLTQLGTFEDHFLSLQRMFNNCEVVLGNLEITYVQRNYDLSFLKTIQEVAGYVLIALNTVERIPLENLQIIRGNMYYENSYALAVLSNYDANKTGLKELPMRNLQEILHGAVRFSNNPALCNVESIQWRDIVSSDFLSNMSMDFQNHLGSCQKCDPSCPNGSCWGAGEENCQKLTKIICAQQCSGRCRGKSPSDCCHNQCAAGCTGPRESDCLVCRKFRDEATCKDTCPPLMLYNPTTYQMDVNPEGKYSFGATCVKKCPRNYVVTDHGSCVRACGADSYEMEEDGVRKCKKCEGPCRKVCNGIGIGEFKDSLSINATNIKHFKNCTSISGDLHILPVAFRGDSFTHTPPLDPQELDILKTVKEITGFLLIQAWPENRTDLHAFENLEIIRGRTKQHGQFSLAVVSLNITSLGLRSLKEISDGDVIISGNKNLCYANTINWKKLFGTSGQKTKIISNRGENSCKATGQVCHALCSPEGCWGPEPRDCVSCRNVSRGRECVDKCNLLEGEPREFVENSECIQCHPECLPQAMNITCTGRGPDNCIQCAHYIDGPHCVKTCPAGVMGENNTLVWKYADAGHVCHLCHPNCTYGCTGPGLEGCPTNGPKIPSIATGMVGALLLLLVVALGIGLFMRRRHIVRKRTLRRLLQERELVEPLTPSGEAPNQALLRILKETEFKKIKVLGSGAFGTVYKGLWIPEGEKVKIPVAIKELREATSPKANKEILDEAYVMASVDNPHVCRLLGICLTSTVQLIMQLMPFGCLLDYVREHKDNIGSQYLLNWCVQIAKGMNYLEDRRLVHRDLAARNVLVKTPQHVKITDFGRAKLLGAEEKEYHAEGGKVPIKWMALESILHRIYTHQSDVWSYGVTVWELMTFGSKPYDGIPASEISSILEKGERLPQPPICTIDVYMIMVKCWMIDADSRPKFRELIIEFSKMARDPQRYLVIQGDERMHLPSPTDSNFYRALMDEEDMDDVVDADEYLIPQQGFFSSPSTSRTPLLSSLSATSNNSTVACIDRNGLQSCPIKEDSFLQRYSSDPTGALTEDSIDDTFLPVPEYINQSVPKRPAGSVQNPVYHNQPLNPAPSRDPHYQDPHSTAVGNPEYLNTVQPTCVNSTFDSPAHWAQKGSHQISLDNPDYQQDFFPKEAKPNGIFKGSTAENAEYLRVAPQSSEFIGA

| SMILES | IC50 [1] | IC50 [2] | inhibition in vivo at 10 mg/kg [3] | IC50 [4] |
| --- | --- | --- | --- | --- |
| C=CC(=O)Nc1cccc(Oc2nc(Nc3ccc(N4CCN(C)CC4)cc3)c(C(N)=O)nc2CC)c1 [Example 1, 5-[3-(acryloylamino)phenoxy]-6-ethyl-3-{[4-(4-methylpiperazin-1-yl)phenyl]amino}pyrazine-2-carboxamide] | 1.3 nM | 2.2 nM | 24% | 1.4 nM |
| CCc1nc(C(N)=O)c(Nc2ccc(N3CCN(C)CC3)cc2)nc1Oc1cccc(NC(=O)/C=C/CN(C)C)c1 [Example 3, 5-(3-{[(2E)-4-(dimethylamino)buta-2-enoyl]amino}phenoxy)-6-ethyl-3-{[4-(4-methylpiperazin-1-yl)phenyl]amino}pyrazine-2-carboxamide] | 1.4 nM | 17 nM | – | 8.8 nM |
| C=CC(=O)Nc1cccc(Oc2nc(Nc3ccc(N4CCN(C)CC4)cc3)c(C(N)=O)nc2CC)c1C [Example 15] | 1.2 nM | 1.1 nM | 41% | 0.77 nM |
| C=CC(=O)N1CCC(c2nc(Nc3ccc(N4CCC(N5CCN(C)CC5)CC4)c(C)c3)c(C(N)=O)nc2CC)CC1 [Example 24] | – | – | 100% | 0.48 nM |
| C=CC(=O)Nc1cccc(Oc2cnc(C(N)=O)c(Nc3ccc(N4CCN(C)CC4)cc3)n2)c1 [Example 26] | 1.1 nM | 0.92 nM | – | 0.52 nM |
| C=CC(=O)Nc1cccc(Oc2nc(Nc3ccc(OC)c(N4CCN(C)CC4)c3)c(C(N)=O)nc2CC)c1 [Example 42] | 1.2 nM | 1.4 nM | – | 1.3 nM |
| C=CC(=O)Nc1cccc(Oc2nc(Nc3ccc(N4CCN(CC)CC4)cc3)c(C(N)=O)nc2CC)c1 [Example 43] | – | – | – | 0.51 nM |
| C=CC(=O)N1CC[C@@H](Oc2nc(Nc3ccc(N4CCC(N5CCN(C)CC5)CC4)cc3)c(C(N)=O)nc2CC)C1 [Example 54] | 1.7 nM | 4.5 nM | 74% | 3.2 nM |
| C=CC(=O)Nc1cccc(Oc2nc(Nc3cnn(C4CCN(C)CC4)c3)c(C(N)=O)nc2C(C)C)c1 [Example 56] | 1.3 nM | 2 nM | – | 1.6 nM |
| C=CC(=O)Nc1cccc(Oc2nc(Nc3ccc(N4CCN(C)[C@@H](C)C4)cc3)c(C(N)=O)nc2CC)c1 [Example 63] | – | – | – | 0.66 nM |
| C=CC(=O)Nc1cccc(Oc2nc(Nc3ccc(N4CCN(C)[C@H](C)C4)cc3)c(C(N)=O)nc2CC)c1 [Example 64] | – | – | 28% | 0.42 nM |
| C=CC(=O)N1CCC[C@@H](Oc2nc(Nc3ccc(N4CCC(N5CCN(C)CC5)CC4)cc3)c(C(N)=O)nc2CC)C1 [Example 79] | 1.3 nM | – | 30% | – |
| C=CC(=O)N1CCC[C@@H](Oc2nc(Nc3ccc(N4CCC(N5CCN(C)CC5)CC4)c(C)c3)c(C(N)=O)nc2CC)C1 [Example 80] | 1.2 nM | – | 27% | – |
| C=CC(=O)Nc1ccc(F)c(Oc2nc(Nc3ccc(N4CCN(C)CC4)cc3)c(C(N)=O)nc2CC)c1 [Example 82] | 1.5 nM | – | 84% | – |
